We go through 17 molecules from patent US6821761B2, “Sphingolipid ceramide N-deacylase, methods for producing sphingolipids and sphingolipid derivatives, and sphingolipid ceramide N-deacylase gene” (Takara Bio, Inc., priority 1994, dated 2004).

The test system of one data set is SCDase. The experiment in a line: Substrate specificity (hydrolysis) of purified SCDase from Pseudomonas sp. TK-4. In kind it is biochemical. The conditions noted are these: 10 nmol sphingolipid, 2 milliunits enzyme, 37° C. 16 h, 20 mM sodium acetate buffer pH 5.0, 0.8% Triton X-100, TLC. The procedure: (§1) The enzyme activity of the SCDase is assayed in the following manner. To 10 μl of a substrate solution [50 mM acetate buffer solution (pH 6.0) containing 2 mM of asialo GM1 and 0.6% (w/v) of Triton X-100] is added 10 μl of an enzyme solution. After reacting at 37° C. for 30 minutes, the enzyme reaction is ceased by heating the mixture to 100° C. for 3 minutes. Then the reaction mixture is concentrated to dryness with a centrifugal concentrator. Then the obtained concentrate is dissolved in 10 μl of 50% methanol and placed on a TLC plate (silica gel 60; manufactured by Merck & Co., Inc.). After developing with chloroform/methanol/0.02% aqueous solution of CaCl2 (5/4/1 by volume), the sphingolipid is subjected to color development by the orcinol-sulfuric acid method. […] This spot is determined by using a TLC chromatoscanner (Shimadzu CS-9000, manufactured by Shimadzu Corporation) at a wavelength of 540 nm.
Sphingolipids (10 nmol each) were incubated at 37° C. for 16 h with 2 milliunits of the enzyme in 20 μl of 20 mM sodium acetate buffer, pH 5.0, containing 0.8% Triton X-100. The extent of hydrolysis was examined by TLC and calculated.

Data set [1] concerns SCDase derived from the genus Pseudomonas. The experiment in a line: Fatty acid exchange reaction on various acceptors by SCDase. The conditions noted are these: 1 nmol [1-14C] stearic acid, 1 nmol sphingolipid, 30 μU SCDase, acetate buffer pH 6.0, 0.8% Triton X-100, overnight 37° C., galactosyl ceramide = 100. In kind it is biochemical. The procedure:
A 10 μl portion of 50 mM acetate buffer (pH 6.0) containing 1 nmol [1−^14C] stearic acid, 1 nmol sphingolipid, 0.8% Triton X-100 and 30 μU SCDase derived from the genus Pseudomonas was allowed to react overnight at 37° C.
The thus obtained reaction solution was developed on thin layer chromatography and exposed to an imaging plate to carry out determination of the reaction product by BAS 1000 Imaging Analyzer (manufactured by Fuji Photo Film).

A further data set relates to crude SCDase. The data set is described as follows: Substrate specificity of crude SCDase (culture supernatant) from Shewanella alga NS-589. The note with it: for Substrate specificity: acting on the substrate, forming the corresponding lysosphingolipid and fatty acid: SCDase produced by Shewanella alga NS-589; for Digestion ratio (%): crude SCDase supernatant, 1.2 mM sphingolipid, acetate buffer pH 6.0, Triton X-100, 37° C. 16 hours, TLC. Type of data set: biochemical. The text has this:
Acting on acidic glycolipids (GM1, GM2, GD1a, GD1b, sialosyl paragloboside, etc.), neutral glycolipids (lactosyl ceramide, Gb4, Gb5, etc.), sulfated glycolipids (sulfatide, etc.) and sphingomyelin which is a sphingophospholipid, thus forming the corresponding lysosphingolipid and fatty acid in each case.
The substrate specificity was examined as follows. Shewanella alga NS-589 was inoculated into a synthetic medium (dipotassium hydrogenphosphate 0.05%, ammonium chloride 0.05%, sphingomyelin 0.1%, sodium taurodeoxycholate 0.1%, sodium chloride 2%, 2,6-O-dimethyl-β-cyclodextrin 0.1%; pH 7.4). Two days after shaking cultivation at 30° C., the strain was removed to obtain a supernatant by centrifuge. A 50 mM acetate buffer ([…]; pH 6.0) containing 3 μl of the supernatant and 1.6% Triton X-100 was allowed to react with 5 μl of 1.2 mM of each of sphingolipids shown in Table 2 at 37° C. for 16 hours, and then the resulting mixture was analyzed with a thin layer chromatography.
The digestion ratios of various substrates by a crude SCDase obtained from Shewanella alga NS-589.

The test system of a further data set is Pseudomonas sp. TK-4. The experiment in a line: Conversion of glycosphingolipids into lyso-forms by culture of Pseudomonas sp. TK-4. Type of data set: cell-based. The conditions noted are these: PY medium with 0.1% 2,6-O-dimethyl-β-cyclodextrin, glycosphingolipid 0.5 mg/ml (Gb4 0.1 mg/ml), 25° C. shaking 3 days, TLC of supernatant. The method, then:
A 60 ml portion of PY medium (polypeptone 0.5%, yeast extract 0.1%, sodium chloride 0.2%; pH 7.2) containing 30 mg of ganglioside GM1 (manufactured by Iatron) and 0.1% of 2,6-O-dimethyl-β-cyclodextrin was sterilized and inoculated with the strain which had been incubated overnight in a slant medium containing 0.1% of crude bovine brain ganglioside prepared in accordance with the method described in Methods in Enzymology, 14:660-664 (1969). Then, the strain was incubated therein under shaking at 25° C. for 3 days.
Then the cells were eliminated by centrifuging the culture medium and thus the culture supernatant was obtained.
PY medium (polypeptone 0.5%, yeast extract 0.1%, sodium chloride 0.2%; pH 7.2) containing 0.1% of 2,6-O-dimethyl-β-cyclodextrin was sterilized in an autoclave and filter-sterilized aqueous solutions of various glycosphingolipids [i.e., GM1, GM2 (manufactured by Matreya), GM3 (manufactured by Iatron), GD1a (manufactured by Iatron), GD1b (manufactured by Iatron), GD3 (manufactured by Iatron), GT1b (manufactured by Biocarb), sulfatide (manufactured by Matreya): each 0.5 mg/ml, Gb4 (manufactured by Iatron): 0.1 mg/ml] were added thereto. Then each medium was inoculated with Pseudomonas sp. TK-4, which had been incubated overnight in a slant medium containing 0.1% of crude bovine brain ganglioside, followed by incubation at 25° C. under shaking for 3 days.
Then the cells were eliminated by centrifuging the culture medium to obtain the culture supernatant which was then analyzed by thin layer chromatography.

Data set [2] relates to SCDase derived from the genus Pseudomonas. The experiment in a line: Reverse reaction on various acceptors by SCDase-1 ([1-14C] stearic acid). Type of data set: biochemical. The conditions noted are these: 1 nmol [1-14C] stearic acid, 1 nmol lysosphingolipid, 30 μU SCDase, acetate buffer pH 6.0, 0.8% Triton X-100, overnight 37° C., galactosylsphingosine = 100. The method, then:
A 10 μl portion of 50 mM acetate buffer (pH 6.0) containing 1 nmol [1-^14C] stearic acid, 1 nmol lysosphingolipid, 0.8% Triton X-100 and 30 μU SCDase derived from the genus Pseudomonas was subjected to overnight reaction at 37° C. The thus obtained reaction solution was developed on thin layer chromatography and exposed to an imaging plate to carry out for determining the reaction product by BAS 1000 Imaging Analyzer (manufactured by Fuji Photo Film).

Data set [3] has the same test system. The experiment in a line: Reverse reaction on various acceptors by SCDase-2 (N-trifluoroacetylated aminododecanoic acid). Type of data set: biochemical. The note with it: 66.6 nmol N-trifluoroacetylated aminododecanoic acid, 33.3 nmol lysosphingolipid, 148 μU SCDase, glycine-NaOH pH 11, 0.3% Triton X-100, 48 hours 37° C. The procedure: A 41.6 μl portion of 25 mM glycine-sodium hydroxide buffer (pH 11) containing 66.6 nmol N-trifluoroacetylated aminododecanoic acid, 33.3 nmol lysosphingolipid, 0.3% Triton X-100 and 148 μU SCDase derived from the genus Pseudomonas was subjected to 48 hours of reaction at 37° C.
The thus obtained reaction solution was developed on thin layer chromatography, a glycosphingolipid was colored with orcinol-sulfuric acid, and other sphingolipids with Coomassie Brilliant Blue, and then determination of the reaction product was carried out by Imaging Densitometer (manufactured by Bio-Rad).

The nature of data set [4]: Enzymological properties of SCDase of Pseudomonas sp. TK-4 (optimum pH, temperature, stability). In kind it is biochemical. The method, then: as §1
One unit (1 U) of activity is defined as the amount of the enzyme liberating 1 μmol of lysoasialo GM1 per minute from asialo GM1 at 37° C. […]
The enzyme of the present invention is maintained at each definite pH value at 5C for 16 hours. After returning the pH value to 6.0, the enzyme activity is measured to thereby examine the pH stability of the enzyme. […]

Consider Galactosyl ceramide [Gal-cer], for which the “Digestion ratio (%)” value in the data set with SCDase is listed as 42%. The “Relative activity (%)” value in data set [1] amounted to 100.0%.
As for Sulfatide, the “Digestion ratio (%)” value with SCDase came to 59%; in the data set on Pseudomonas sp. TK-4, 100%. Besides, in the data set with crude SCDase, the “Substrate specificity: acting on the substrate, forming the corresponding lysosphingolipid and fatty acid” value (“Substrate specificity: acting” below) is “Acting on”. In addition, the “Relative activity (%)” value in data set [1] is 31.7%.
lactosyl ceramide [Lac-cer]: in the data set with SCDase, the “Digestion ratio (%)” value is 64%. In the data set on crude SCDase, the “Substrate specificity: acting” value was “Acting on”; the “Digestion ratio (%)” value was 19.3%. Further, in data set [1], the “Relative activity (%)” value turned out to be 112.0%.
Take GD1a: the “Digestion ratio (%)” value with SCDase is 49%; with crude SCDase, 32.6%; with Pseudomonas sp. TK-4, 100%. For the same molecule, in the data set with crude SCDase, the “Substrate specificity: acting” value is given as “Acting on”. For the same molecule, in data set [1], the “Relative activity (%)” value was determined as 6.2%.
As to Gal-GalNAc-Gal-Glc-Cer [Asialo GM1], the “Digestion ratio (%)” value with SCDase is reported as 67%. In addition, the “Relative activity (%)” value in data set [1] was 164.0%.
On to `CCCCCCCCCCCCC/C=C/[C@@H](O)[C@@H](N)CO[C@@H]1O[C@H](CO)[C@@H](O[C@@H]2O[C@H](CO)[C@H](O[C@@H]3O[C@H](CO)[C@H](O)[C@H](O[C@@H]4O[C@H](CO)[C@H](O)[C@H](O)[C@H]4O)[C@H]3NC(C)=O)[C@H](O[C@]3(C(=O)O)C[C@H](O)[C@@H](NC(C)=O)[C@H]([C@H](O)[C@H](O)CO)O3)[C@H]2O)[C@H](O)[C@H]1O` [Lysoganglioside GM1a], for which the “Relative activity (%)” value in data set [2] came to 15.4%. Also, the “Reaction Efficiency (%)” value in data set [3] was determined as 29%.
As for `CCCCCCCCCCCCC/C=C/[C@@H](O)[C@@H](N)CO[C@@H]1O[C@H](CO)[C@H](O)[C@H](O)[C@H]1O` [Galactosylsphingosine, galactosylsphingosine], the “Relative activity (%)” value in data set [2] stood at 100.0%.
Turning to Ceramide, the “Relative activity (%)” value in data set [1] is on record as 77.5%.
Take GD1b: in the data set with crude SCDase, the “Substrate specificity: acting” value is listed as “Acting on”. Moreover, the “Digestion ratio (%)” value in the data set with Pseudomonas sp. TK-4 is 100%. Besides, the “Relative activity (%)” value in data set [1] came out at 1.2%.
For the molecule `CCCCCCCCCCCCC/C=C/[C@@H](O)[C@@H](N)CO[C@@H]1O[C@H](CO)[C@@H](O[C@@H]2O[C@H](CO)[C@H](O)[C@H](O)[C@H]2O)[C@H](O)[C@H]1O` [Lysolactosyl ceramide], the “Relative activity (%)” value in data set [2] stood at 37.2%.
With GT1b, the “Digestion ratio (%)” value was 26.2% in the data set on crude SCDase and 100% in the data set with Pseudomonas sp. TK-4.
In the case of `CCCCCCCCCCCCC/C=C/[C@@H](O)[C@@H](N)CO` [Sphingosine, sphingosine], the “Relative activity (%)” value in data set [2] is given as 11.5%. In addition, the “Reaction Efficiency (%)” value in data set [3] is listed as 69%.
Regarding `CCCCCCCCCCCCC/C=C/[C@@H](O)[C@@H](N)COP(=O)([O-])OCC[N+](C)(C)C` [Lysosphingomyelin, sphingosylphosphorylcholine], in data set [2], the “Relative activity (%)” value is reported as 5.7%.
Turning to Glucosyl ceramide [Glc-cer], the “Digestion ratio (%)” value in the data set with SCDase is listed as 48%. Also, the “Relative activity (%)” value in data set [1] amounted to 129.0%.
As for `CCCCCCCCCCCCC/C=C/[C@@H](O)[C@@H](N)CO[C@@H]1O[C@H](CO)[C@H](O)[C@H](OS(=O)(=O)O)[C@H]1O` [Lysosulfatide], in data set [2], the “Relative activity (%)” value turned out to be 59.6%.
With `CCCCCCCCCCCCCC=CC(O)C(N)COC1OC(CO)C(OC2OC(CO)C(O)C(OC3(C(=O)O)CC(O)C(NC(C)=O)C(C(O)C(O)CO)O3)C2O)C(O)C1O` (stereo not drawn) [Lysoganglioside GM3], in data set [3], the “Reaction Efficiency (%)” value came to 24%.

B1: SCDase (Pseudomonas sp. TK-4): sphingolipid ceramide N-deacylase produced by Pseudomonas sp. TK-4, SEQ ID NO:1 (protein)
chain: ELGDYGAWKTLLNLTSPPKADNPVRAEQRVGPYPMLANPAGFRSGFTPTAYFAWQTVQLAPETGAVCGDGSPYKFFVNRMPNTSNTLIYMEGGGACWDYASCSGQAGIRGARNPNGIPDDYMKLANPQASLVSPFVVRLHPYSRVKTQGWNIVYIPYCTGDLYAGDKVAVYDDPSGKKPPLVWHHNGLRNGRAVLGWLKDNLERPGQMLSTGCSAGGAGSLISHSVLRQDLAPDRGFLIDDSGPVFSAAVGGDSQTYPSLPLQNLIRSAWGLDQGPLQFLQSRLPGVSLSNLGSLYPALAANFPGDRLGHTHFWQDLNYSSYSYERFYPEIANAPDKATKEALIKAKWQVDTARLRDTLANLPNFGGYFPQYRALNESHCTTIVDFANGDIQEQGLELSHFIDNVLNGQGPVLDASELSDSADRAKPNNLIYDAINKLL
modifications: OTHER INFORMATION: Description of Unknown Or ganism: sphingolipid ceramide N-deacylase
Consider B1, for which, in data set [4] (FIG. 2), the “Optimum temperature (maximum activity)” value was “about 40 °C”. Further, the “Heat stability: activity sustained” value in data set [4] (after treating at 60° C. for 30 minutes, FIG. 4) was 90%.
